These results are taken from patent US12083124B2 (Incyte Corporation, priority 2019, dated 2024).

Where two headings read alike, the source gives them in different places.

For assay [1], the target named is wild-type un-phosphorylated FGFR1 (Homo sapiens, UniProt P11362). Description: FGFR Enzymatic Assay (FRET peptide phosphorylation), FGFR1. The note with it: pre-incubated for 4 hours.
Protocol: (§1) The inhibitor potency of the exemplified compounds was determined in an enzyme discontinuous assay that measures peptide phosphorylation using FRET measurements to detect product formation. Inhibitors were serially diluted in DMSO and a volume of 0.2 μL was transferred to the wells of a 384-well plate. […] Appropriate controls (enzyme blank and enzyme with no inhibitor) were included on the plate. […] The 10 μL/well reaction concentration of the peptide substrate was 500 nM whereas the ATP concentration was maintained near or below the ATP Km. The ATP Km values were pre-determined in a separate series of experiments. The reaction plate was incubated at 25° C. for 1 hr and the reactions were ended with the addition of 5 μL/well of quench solution (50 mM Tris, 150 mM NaCl, 0.5 mg/mL BSA, pH 7.8; 45 mM EDTA, 600 nM staurosporin, with Perkin Elmer Lance Reagents at 3.75 nM Eu-antibody PY20 and 180 nM APC-Streptavidin). The plate was allowed to equilibrate for ˜10 minutes at ambient temperature before scanning on a PheraStar plate reader (BMG Labtech) instrument.
(§2) Either GraphPad prism or XLfit was used to analyze the data. The IC50 values were derived by fitting the data to a four parameter logistic equation producing a sigmoidal dose-response curve with a variable Hill coefficient. Prism equation: Y=Bottom+(Top-Bottom)/(1+10^((Log IC50-X)*Hill slope)); XLfit equation: Y=(A+((B−A)/(1+((X/C)^D)))) where X is the logarithm of inhibitor concentration and Y is the response.
(§3) GraphPad prism3 was used to analyze the data. The IC50 values were derived by fitting the data to the equation for a sigmoidal dose-response with a variable slope. Y=Bottom+(Top-Bottom)/(1+10^((Log IC50-X)*Hill Slope)) where X is the logarithm of concentration and Y is the response.
(§4) The data in Table 1 was measured in wild-type un-phosphorylated FGFR1, FGFR2, FGFR3, and FGFR4 proteins.
The target of assay [2] is wild-type un-phosphorylated FGFR2 (Homo sapiens, UniProt P21802). Description: FGFR Enzymatic Assay (FRET peptide phosphorylation), FGFR2.
Sequence of wild-type un-phosphorylated FGFR2 (P21802 22-821): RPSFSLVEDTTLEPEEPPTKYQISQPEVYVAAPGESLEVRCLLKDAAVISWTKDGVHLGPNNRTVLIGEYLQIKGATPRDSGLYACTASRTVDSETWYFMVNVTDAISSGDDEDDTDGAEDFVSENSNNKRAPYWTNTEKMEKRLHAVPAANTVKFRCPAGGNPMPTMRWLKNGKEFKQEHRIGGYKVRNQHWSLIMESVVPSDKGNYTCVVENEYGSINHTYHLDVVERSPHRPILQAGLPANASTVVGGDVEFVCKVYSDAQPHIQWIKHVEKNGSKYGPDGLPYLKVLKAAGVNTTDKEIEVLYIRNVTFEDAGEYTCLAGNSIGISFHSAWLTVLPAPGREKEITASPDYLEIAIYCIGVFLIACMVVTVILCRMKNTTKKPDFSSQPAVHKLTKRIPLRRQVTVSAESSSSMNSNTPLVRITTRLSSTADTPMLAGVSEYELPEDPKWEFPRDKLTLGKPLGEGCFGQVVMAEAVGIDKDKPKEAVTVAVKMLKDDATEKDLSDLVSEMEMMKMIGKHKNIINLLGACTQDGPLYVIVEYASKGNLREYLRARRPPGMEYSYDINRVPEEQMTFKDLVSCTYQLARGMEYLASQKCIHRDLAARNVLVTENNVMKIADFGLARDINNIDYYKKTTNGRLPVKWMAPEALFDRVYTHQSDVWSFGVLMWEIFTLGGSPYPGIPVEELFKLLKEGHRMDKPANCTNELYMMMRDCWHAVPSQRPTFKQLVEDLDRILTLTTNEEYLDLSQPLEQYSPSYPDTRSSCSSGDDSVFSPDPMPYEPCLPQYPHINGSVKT
Protocol: as §1, §2, §3, §4
In assay [3] the target is wild-type un-phosphorylated FGFR3 (Homo sapiens, UniProt P22607). Description: FGFR Enzymatic Assay (FRET peptide phosphorylation), FGFR3.
Sequence of wild-type un-phosphorylated FGFR3 (P22607 23-806): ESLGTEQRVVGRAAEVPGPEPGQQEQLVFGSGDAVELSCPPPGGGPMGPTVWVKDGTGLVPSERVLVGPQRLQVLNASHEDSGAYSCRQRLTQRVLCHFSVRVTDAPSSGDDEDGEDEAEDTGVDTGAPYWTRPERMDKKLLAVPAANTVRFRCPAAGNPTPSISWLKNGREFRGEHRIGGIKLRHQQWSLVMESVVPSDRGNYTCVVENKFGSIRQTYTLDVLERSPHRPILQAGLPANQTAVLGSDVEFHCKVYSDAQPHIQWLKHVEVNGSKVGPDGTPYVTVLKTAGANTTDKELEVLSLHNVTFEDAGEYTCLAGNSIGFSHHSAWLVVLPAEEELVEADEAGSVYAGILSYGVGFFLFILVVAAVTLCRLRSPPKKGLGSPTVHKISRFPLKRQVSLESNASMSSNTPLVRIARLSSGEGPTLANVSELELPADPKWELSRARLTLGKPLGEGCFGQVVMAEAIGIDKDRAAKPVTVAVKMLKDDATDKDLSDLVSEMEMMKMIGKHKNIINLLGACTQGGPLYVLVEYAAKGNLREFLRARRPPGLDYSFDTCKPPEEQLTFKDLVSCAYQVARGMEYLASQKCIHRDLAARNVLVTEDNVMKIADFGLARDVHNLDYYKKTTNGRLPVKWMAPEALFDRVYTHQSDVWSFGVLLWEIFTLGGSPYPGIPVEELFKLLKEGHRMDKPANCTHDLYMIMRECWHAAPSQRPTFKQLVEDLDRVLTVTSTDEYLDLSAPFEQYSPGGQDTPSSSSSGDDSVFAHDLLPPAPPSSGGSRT
The target in assay [4] is wild-type un-phosphorylated FGFR4 (Homo sapiens, UniProt P22455). Description: FGFR Enzymatic Assay (FRET peptide phosphorylation), FGFR4.
Sequence of wild-type un-phosphorylated FGFR4 (P22455 22-802): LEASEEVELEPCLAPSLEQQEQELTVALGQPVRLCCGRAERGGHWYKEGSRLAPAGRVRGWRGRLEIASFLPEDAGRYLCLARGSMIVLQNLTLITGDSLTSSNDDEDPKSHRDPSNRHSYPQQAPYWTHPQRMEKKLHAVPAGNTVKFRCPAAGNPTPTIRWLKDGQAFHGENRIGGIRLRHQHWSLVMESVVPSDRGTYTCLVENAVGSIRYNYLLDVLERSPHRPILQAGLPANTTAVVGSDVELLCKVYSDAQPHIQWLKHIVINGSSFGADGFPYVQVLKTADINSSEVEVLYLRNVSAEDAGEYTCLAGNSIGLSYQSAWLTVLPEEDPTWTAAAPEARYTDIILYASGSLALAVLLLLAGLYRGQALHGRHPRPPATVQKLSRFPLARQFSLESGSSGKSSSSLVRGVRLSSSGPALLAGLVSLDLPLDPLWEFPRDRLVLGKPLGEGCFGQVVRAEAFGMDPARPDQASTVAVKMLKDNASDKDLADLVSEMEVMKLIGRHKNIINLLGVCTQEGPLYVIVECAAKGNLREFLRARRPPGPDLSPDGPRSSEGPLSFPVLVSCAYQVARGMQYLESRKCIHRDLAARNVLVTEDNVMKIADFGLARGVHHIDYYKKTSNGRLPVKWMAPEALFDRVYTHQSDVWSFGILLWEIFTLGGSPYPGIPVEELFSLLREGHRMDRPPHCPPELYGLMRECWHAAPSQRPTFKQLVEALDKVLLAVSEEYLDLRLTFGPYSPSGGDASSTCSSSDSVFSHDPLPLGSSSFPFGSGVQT
Protocol: as §1, §2, §3, §4
Where [5] appears, read: FGFR1, wild-type un-phosphorylated FGFR1.
The mark [6] stands for this setting: read-out: FGFR2, wild-type un-phosphorylated FGFR2, pre-incubated for 4 hours.
[7] abbreviates: read-out: FGFR1, wild-type un-phosphorylated FGFR1.
The mark [8] stands for this setting: read-out: FGFR4, wild-type un-phosphorylated FGFR4, pre-incubated for 4 hours.

Sequence of wild-type un-phosphorylated FGFR1 (P11362 22-822): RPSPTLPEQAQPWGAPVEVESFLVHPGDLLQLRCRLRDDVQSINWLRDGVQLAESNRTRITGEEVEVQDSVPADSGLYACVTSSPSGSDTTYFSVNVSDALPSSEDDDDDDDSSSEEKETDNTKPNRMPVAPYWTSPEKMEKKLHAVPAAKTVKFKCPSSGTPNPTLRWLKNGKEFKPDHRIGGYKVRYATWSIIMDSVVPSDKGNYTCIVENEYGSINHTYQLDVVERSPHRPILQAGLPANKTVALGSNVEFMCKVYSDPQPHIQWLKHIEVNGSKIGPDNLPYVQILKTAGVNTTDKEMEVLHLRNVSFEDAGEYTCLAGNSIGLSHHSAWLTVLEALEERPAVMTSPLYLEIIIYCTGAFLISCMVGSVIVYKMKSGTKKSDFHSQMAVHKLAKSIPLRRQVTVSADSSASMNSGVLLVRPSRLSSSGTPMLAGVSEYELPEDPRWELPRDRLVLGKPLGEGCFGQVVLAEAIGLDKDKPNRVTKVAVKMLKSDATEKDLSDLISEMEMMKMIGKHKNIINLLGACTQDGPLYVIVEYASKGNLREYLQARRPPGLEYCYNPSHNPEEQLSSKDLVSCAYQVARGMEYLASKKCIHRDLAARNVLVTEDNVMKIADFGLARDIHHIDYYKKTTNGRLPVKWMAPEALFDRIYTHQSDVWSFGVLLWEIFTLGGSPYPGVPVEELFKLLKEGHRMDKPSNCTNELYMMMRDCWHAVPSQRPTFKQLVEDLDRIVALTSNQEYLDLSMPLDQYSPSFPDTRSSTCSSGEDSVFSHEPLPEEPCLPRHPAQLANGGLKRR

`COc1cc2[nH]nc(-c3ccc(N4CCOCC4)nc3)c2nc1-c1cccc(CC#N)c1C` [Example 56, 2-(3-(6-Methoxy-3-(6-morpholinopyridin-3-yl)-1H-pyrazolo[4,3-b]pyridin-5-yl)-2-methylphenyl)acetonitrile]: the IC50 in assay [1] (setting [5]) was greater than 100 nM; in assay [2] (setting [6]), 6 to 40 nM; in assay [3] it was less than 6 nM; in assay [4] it was greater than 100 nM.
On to `COc1cc2[nH]nc(-c3cnn(C4CN(C(=O)[C@H]5C[C@@H](O)C5)C4)c3)c2nc1-c1cccc2c1CCC2` [Example 126, (3-(4-(5-(2,3-Dihydro-1H-inden-4-yl)-6-methoxy-1H-pyrazolo[4,3-b]pyridin-3-yl)-1H-pyrazol-1-yl)azetidin-1-yl)((cis)-3-hydroxycyclobutyl)methanone], for which the IC50 in assay [1] (setting [7]) was 6 to 40 nM; in assay [2], less than 6 nM; in assay [3], less than 6 nM; in assay [4] (setting [8]) it was 6 to 40 nM.
On to `COc1cc2[nH]nc(-c3ccc(C4CN(CCC#N)C4)nc3)c2nc1-c1cccc2c1CCC2` [Example 187, 3-(3-(5-(5-(2,3-Dihydro-1H-inden-4-yl)-6-methoxy-1H-pyrazolo[4,3-b]pyridin-3-yl)pyridin-2-yl)azetidin-1-yl)propanenitrile], for which the IC50 is 6 to 40 nM in assay [1] (setting [7]), less than 6 nM in assay [2], less than 6 nM in assay [3] and 6 to 40 nM in assay [4] (setting [8]).
Regarding `COc1cc2[nH]nc(-c3cnn(C4CN(C(=O)[C@H]5CCN5C)C4)c3)c2nc1-c1cccc2c1CCC2` [Example 122, (R)-(3-(4-(5-(2,3-Dihydro-1H-inden-4-yl)-6-methoxy-1H-pyrazolo[4,3-b]pyridin-3-yl)-1H-pyrazol-1-yl)azetidin-1-yl)(1-methylazetidin-2-yl)methanone], the IC50 is 6 to 40 nM in assay [1] (setting [7]), less than 6 nM in assay [2], less than 6 nM in assay [3] and 40 to 100 nM in assay [4].
Turning to `COc1cc2[nH]nc(-c3cnn(C4CN(C(=O)[C@@H]5CCCO5)C4)c3)c2nc1-c1cccc2c1CCC2` [Example 130, (S)-(3-(4-(5-(2,3-Dihydro-1H-inden-4-yl)-6-methoxy-1H-pyrazolo[4,3-b]pyridin-3-yl)-1H-pyrazol-1-yl)azetidin-1-yl)(tetrahydrofuran-2-yl)methanone], the IC50 was 6 to 40 nM in assay [1] (setting [7]), less than 6 nM in assay [2], less than 6 nM in assay [3] and 6 to 40 nM in assay [4] (setting [8]).
`COC(=O)N1CCC(n2cc(-c3n[nH]c4cc(OC)c(-c5cccc6c5CCC6)nc34)cn2)CC1` [Example 20, Methyl 4-(4-(5-(2,3-dihydro-1H-inden-4-yl)-6-methoxy-1H-pyrazolo[4,3-b]pyridin-3-yl)-1H-pyrazol-1-yl)piperidine-1-carboxylate]: the IC50 in assay [1] (setting [5]) is 40 to 100 nM; in assay [2] it was less than 6 nM; in assay [3], less than 6 nM; in assay [4], greater than 100 nM.
In the case of `COc1cc2[nH]nc(-c3cnn(C4CN(C(=O)[C@H]5COCCN5C)C4)c3)c2nc1-c1cccc2c1CCC2` [Example 127, (R)-(3-(4-(5-(2,3-Dihydro-1H-inden-4-yl)-6-methoxy-1H-pyrazolo[4,3-b]pyridin-3-yl)-1H-pyrazol-1-yl)azetidin-1-yl)(4-methylmorpholin-3-yl)methanone], the IC50 in assay [1] (setting [7]) is 6 to 40 nM; in assay [2], less than 6 nM; in assay [3] it was less than 6 nM; in assay [4], 40 to 100 nM.
With `CCNC(=O)N1CCN(c2ccc(-c3n[nH]c4cc(OC)c(-c5cccc6c5CCC6)nc34)cn2)CC1` [Example 59, 4-(5-(5-(2,3-Dihydro-1H-inden-4-yl)-6-methoxy-1H-pyrazolo[4,3-b]pyridin-3-yl)pyridin-2-yl)-N-ethylpiperazine-1-carboxamide], the IC50 in assay [1] (setting [7]) is 6 to 40 nM; in assay [2], less than 6 nM; in assay [3], less than 6 nM; in assay [4] (setting [8]), 6 to 40 nM.
On to `COc1cc2[nH]nc(-c3cnn([C@H]4CC[C@H](O)CC4)c3)c2nc1-c1cccc2c1CCC2` [Example 33, (trans)-4-(4-(5-(2,3-Dihydro-1H-inden-4-yl)-6-methoxy-1H-pyrazolo[4,3-b]pyridin-3-yl)-1H-pyrazol-1-yl)cyclohexan-1-ol], for which the IC50 in assay [1] (setting [5]) is 40 to 100 nM; in assay [2], less than 6 nM; in assay [3] it was less than 6 nM; in assay [4], greater than 100 nM.
Regarding `COc1cc2[nH]nc(-c3cnn(C4CN(C(=O)C5(C#N)CC5)C4)c3)c2nc1-c1cccc2c1CCC2` [Example 149, 1-(3-(4-(5-(2,3-Dihydro-1H-inden-4-yl)-6-methoxy-1H-pyrazolo[4,3-b]pyridin-3-yl)-1H-pyrazol-1-yl)azetidine-1-carbonyl)cyclopropane-1-carbonitrile], the IC50 in assay [1] (setting [7]) is 6 to 40 nM; in assay [2] it was less than 6 nM; in assay [3], less than 6 nM; in assay [4] (setting [8]), 6 to 40 nM.
Take `COc1cc2[nH]nc(-c3cnn(C4CN(S(=O)(=O)CCN(C)C)C4)c3)c2nc1-c1cccc2c1CCC2` [Example 151, 2-((3-(4-(5-(2,3-Dihydro-1H-inden-4-yl)-6-methoxy-1H-pyrazolo[4,3-b]pyridin-3-yl)-1H-pyrazol-1-yl)azetidin-1-yl)sulfonyl)-N,N-dimethylethan-1-amine]: the IC50 was 6 to 40 nM in assay [1] (setting [7]), less than 6 nM in assay [2], less than 6 nM in assay [3] and 40 to 100 nM in assay [4].
Regarding `COc1cc2[nH]nc(-c3ccc(C45CC4CN(C4CCOCC4)C5)nc3)c2nc1-c1cccc2c1CCC2` (centres unmarked) [Example 193, 5-(2,3-Dihydro-1H-inden-4-yl)-6-methoxy-3-(6-(3-(tetrahydro-2H-pyran-4-yl)-3-azabicyclo[3.1.0]hexan-1-yl)pyridin-3-yl)-1H-pyrazolo[4,3-b]pyridine], the IC50 in assay [1] (setting [7]) is 6 to 40 nM; in assay [2], less than 6 nM; in assay [3], less than 6 nM; in assay [4] (setting [8]), 6 to 40 nM.
Regarding `COc1cc2[nH]nc(-c3cnn(C4CN(C(=O)CO)C4)c3)c2nc1-c1cccc2c1CCC2` [Example 116, 1-(3-(4-(5-(2,3-Dihydro-1H-inden-4-yl)-6-methoxy-1H-pyrazolo[4,3-b]pyridin-3-yl)-1H-pyrazol-1-yl)azetidin-1-yl)-2-hydroxyethan-1-one], the IC50 was 6 to 40 nM in assay [1] (setting [7]), less than 6 nM in assay [2], less than 6 nM in assay [3] and 40 to 100 nM in assay [4].
As for `COc1cc2[nH]nc(-c3cnn(C4CN(C(=O)C5CC5)C4)c3)c2nc1-c1cccc2c1CCC2` [Example 25, Cyclopropyl(3-(4-(5-(2,3-dihydro-1H-inden-4-yl)-6-methoxy-1H-pyrazolo[4,3-b]pyridin-3-yl)-1H-pyrazol-1-yl)azetidin-1-yl)methanone], the IC50 in assay [1] (setting [7]) was 6 to 40 nM; in assay [2], less than 6 nM; in assay [3], less than 6 nM; in assay [4] it was 40 to 100 nM.
With `COc1cc2[nH]nc(-c3cnn(C4CN(C(=O)C(C)(C)N(C)C)C4)c3)c2nc1-c1cccc2c1CCC2` [Example 148, 1-(3-(4-(5-(2,3-Dihydro-1H-inden-4-yl)-6-methoxy-1H-pyrazolo[4,3-b]pyridin-3-yl)-1H-pyrazol-1-yl)azetidin-1-yl)-2-(dimethylamino)-2-methylpropan-1-one], the IC50 was 6 to 40 nM in assay [1] (setting [7]), less than 6 nM in assay [2], less than 6 nM in assay [3] and 40 to 100 nM in assay [4].
For the compound `COc1cc2[nH]nc(-c3cnn(Cc4ccccn4)c3)c2nc1-c1cccc(C)c1C` [Example 66, 5-(2,3-Dimethylphenyl)-6-methoxy-3-(1-(pyridin-2-ylmethyl)-1H-pyrazol-4-yl)-1H-pyrazolo[4,3-b]pyridine], the IC50 in assay [1] (setting [5]) was greater than 100 nM; in assay [2], less than 6 nM; in assay [3], less than 6 nM; in assay [4], greater than 100 nM.
Regarding `COc1cc2[nH]nc(-c3cnn(CCC#N)c3)c2nc1-c1cccc2c1CCC2` [Example 30, 3-(4-(5-(2,3-Dihydro-1H-inden-4-yl)-6-methoxy-1H-pyrazolo[4,3-b]pyridin-3-yl)-1H-pyrazol-1-yl)propanenitrile], the IC50 is greater than 100 nM in assay [1] (setting [5]), 6 to 40 nM in assay [2] (setting [6]), less than 6 nM in assay [3] and 40 to 100 nM in assay [4].
For `COCC(=O)N1CC[C@H](n2cc(-c3n[nH]c4cc(OC)c(-c5cccc6c5CCC6C#N)nc34)cn2)C1` (single isomer, unassigned) [Example 168], the IC50 was 6 to 40 nM in assay [1] (setting [7]), less than 6 nM in assay [2], less than 6 nM in assay [3] and 6 to 40 nM in assay [4] (setting [8]).
For `COc1cc2[nH]nc(-c3ccc(C4CCN(C(=O)[C@@H]5CCCN5C)CC4)nc3)c2nc1-c1cccc2c1CCC2` [Example 108, 5-(2,3-Dihydro-1H-inden-4-yl)-6-methoxy-3-(6-(1-(methyl-L-prolyl)piperidin-4-yl)pyridin-3-yl)-1H-pyrazolo[4,3-b]pyridine], the IC50 in assay [1] (setting [7]) was 6 to 40 nM; in assay [2], less than 6 nM; in assay [3], less than 6 nM; in assay [4] (setting [8]), 6 to 40 nM.
For the compound `COc1cc2[nH]nc(-c3cnn([C@H]4CCN(C(=O)[C@@H]5CCCO5)C4)c3)c2nc1-c1cccc2c1CCC2C#N` (stereo partly drawn) [Example 169, 4-(6-Methoxy-3-(1-((S)-1-((S)-tetrahydrofuran-2-carbonyl)pyrrolidin-3-yl)-1H-pyrazol-4-yl)-1H-pyrazolo[4,3-b]pyridin-5-yl)-2,3-dihydro-1H-indene-1-carbonitrile], the IC50 in assay [1] (setting [7]) is 6 to 40 nM; in assay [2], less than 6 nM; in assay [3], less than 6 nM; in assay [4] it was 40 to 100 nM.
